Assay results: ChEMBL document CHEMBL1201862, “PubChem BioAssay data set” (2004)
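Values below derive from 48-hour exposures of cells grown in 96-well plates, with endpoints linearly interpolated between the two concentrations bracketing the appropriate inhibition level. The concentration for 50% growth inhibition is given as GI50.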 Calls of active or inactive are those of the source. Rule as the data show it: active = GI50 up to about 1.1 µM and inactive = higher.

Experiments:
Experiment in all cases: growth of human tumour cells (NCI), 48 h
[1] = tested on: NCI-H23
[2] = tested on: Hs-578T
[3] = tested on: COLO 205
[4] = tested on: HL-60
[5] = tested on: EKVX
[6] = tested on: NCI-H460
[7] = tested on: RXF 393
[8] = tested on: OVCAR-8
[9] = tested on: MOLT-4
[10] = tested on: HCT-116
[11] = tested on: A498
[12] = tested on: SF-268
[13] = tested on: HCC 2998
[14] = tested on: M14
[15] = tested on: HOP-62
[16] = tested on: Malme-3M
[17] = tested on: OVCAR-3
[18] = tested on: T47D
[19] = tested on: A549
[20] = tested on: CCRF-CEM
[21] = tested on: K562
[22] = tested on: SF-295
[23] = tested on: SW-620
[24] = tested on: SK-MEL-5
[25] = tested on: NCI/ADR-RES
[26] = tested on: ACHN
[27] = tested on: TK-10
[28] = tested on: IGROV-1
[29] = tested on: SK-MEL-28
[30] = tested on: UO-31
[31] = tested on: U-251
[32] = tested on: SN12C
[33] = tested on: DU-145
[34] = tested on: SF-539
[35] = tested on: OVCAR-4
[36] = tested on: HT-29
[37] = tested on: KM12
[38] = tested on: OVCAR-5
[39] = tested on: UACC-62
[40] = tested on: CAKI-1
[41] = tested on: NCI-H522
[42] = tested on: LOX IMVI
[43] = tested on: PC-3
[44] = tested on: SK-OV-3
[45] = tested on: HCT-15
[46] = tested on: MDA-MB-435
[47] = tested on: RPMI-8226
[48] = tested on: MDA-MB-231
[49] = tested on: SNB-75
[50] = tested on: SR
[51] = tested on: MCF7
[52] = tested on: NCI-H226
[53] = tested on: SK-MEL-2
[54] = tested on: SNB-19
[55] = tested on: HOP-92
[56] = tested on: 786-0
[57] = tested on: MDA-N
[58] = tested on: UACC-257

Measured: GI50

COc1ccc(N2C(=O)C(=O)N(C)C2=O)c2ccccc12
> 10 µM: [45]
inactive: [1] > 10 µM | [2] > 10 µM | [3] > 10 µM | [4] > 10 µM | [5] > 10 µM | [6] > 10 µM | [7] > 10 µM | [8] > 10 µM | [9] > 10 µM | [10] > 10 µM | [11] > 10 µM | [12] > 10 µM | [13] > 10 µM | [14] > 10 µM | [15] > 10 µM | [16] > 10 µM | [17] > 10 µM | [18] > 10 µM | [19] > 10 µM | [20] > 10 µM | [21] > 10 µM | [22] > 10 µM | [23] > 10 µM | [24] > 10 µM | [25] > 10 µM | [26] > 10 µM | [27] > 10 µM | [28] > 10 µM | [29] > 10 µM | [30] > 10 µM | [31] > 10 µM | [32] > 10 µM | [33] > 10 µM | [34] > 10 µM | [35] > 10 µM | [36] > 10 µM | [37] > 10 µM | [38] > 10 µM | [39] > 10 µM | [40] > 10 µM | [41] > 10 µM | [42] > 10 µM | [43] > 10 µM | [44] > 10 µM | [46] > 10 µM | [47] > 10 µM | [48] > 10 µM | [49] > 10 µM | [50] > 10 µM | [51] > 10 µM | [52] > 10 µM | [53] > 10 µM | [54] > 10 µM

COc1cc2c(cc1OCCOS(C)(=O)=O)N=C[C@@H]1CCCN1C2=O
inactive: [2] 27.5 µM | [3] 24.1 µM | [4] 26.9 µM | [5] 32.7 µM | [6] 97.7 µM | [7] 29.7 µM | [8] 32.1 µM | [9] 21.9 µM | [55] 21.4 µM | [12] 70.1 µM | [13] 30.7 µM | [18] 40.7 µM | [19] > 100 µM | [22] 23.3 µM | [28] 27.7 µM | [29] 23.8 µM | [32] 26 µM | [33] 27.3 µM | [35] 22.2 µM | [36] 36.8 µM | [37] 33.9 µM | [44] > 100 µM | [46] 20.3 µM | [49] 54.1 µM | [51] 39 µM | [53] 29.4 µM | [54] 45.3 µM

O=C(c1ccc(Cl)c(Cl)c1)N1CCN(C(=O)c2ccc(Cl)c(Cl)c2)C1=S
inactive: [47] 1.83 µM

CCn1cc(C(=O)O)c(=O)c2ccc(C)nc21 [NALIDIXIC ACID]
inactive: [1] > 100 µM | [2] > 100 µM | [3] > 100 µM | [4] > 100 µM | [5] > 100 µM | [6] > 100 µM | [8] > 100 µM | [9] > 100 µM | [55] 26.9 µM | [10] > 100 µM | [56] > 100 µM | [12] > 100 µM | [57] > 100 µM | [13] > 100 µM | [14] > 100 µM | [15] > 100 µM | [16] > 100 µM | [17] > 100 µM | [18] > 100 µM | [19] > 100 µM | [20] > 100 µM | [21] > 100 µM | [22] > 100 µM | [23] > 100 µM | [24] > 100 µM | [25] > 100 µM | [26] > 100 µM | [27] > 100 µM | [28] > 100 µM | [29] > 100 µM | [30] 67 µM | [31] > 100 µM | [32] > 100 µM | [33] > 100 µM | [34] > 100 µM | [35] > 100 µM | [36] > 100 µM | [37] > 100 µM | [38] > 100 µM | [40] > 100 µM | [41] > 100 µM | [42] > 100 µM | [43] > 100 µM | [58] > 100 µM | [46] > 100 µM | [47] > 100 µM | [48] > 100 µM | [49] 97.3 µM | [50] > 100 µM | [51] > 100 µM | [52] > 100 µM | [53] > 100 µM | [54] > 100 µM
> 100 µM: [45]
